Laboratory results published in paper PMC6100724, “Proteome‐wide analysis of phospho‐regulated PDZ domain interactions” (Molecular Systems Biology, 2018).

Assays:
Scribble PDZ2 = test: Phosphomimetic ProP-PD selection with NGS; assay type: binding, human; details: bait Scribble PDZ2
Procedure: (§1) Phage selections were carried out for four rounds following a protocol by Huang and Sidhu (Huang & Sidhu, 2011) with minor modifications. Non‐specific binding phage was removed by pre‐selections against immobilized GST throughout the selection. The selections against the (pre‐)phosphorylated wild‐type library were performed in 50 mM HEPES (pH 7.4) and 150 mM NaCl (HBS) following the same procedure after pre‐phosphorylation of the library.
(§2) • Immobilize proteins (15 μg in 100 μl PBS) in a 96‐well MaxiSorp microtiter plate (NUNC) overnight at 4°C. • Start a 2YT culture of E. coli Omnimax supplemented with 100 μg/ml tetracycline to retain the F pilus epitope. • Block the wells with 200 μl 0.5% BSA in PBS for 2 h at 4°C. • Precipitate naïve phage library (10^11 cfu per selection) or amplified phage pool from the previous round of selection by adding one‐fifth the volume of PEG/NaCl. • Incubate on ice for 10 min, and pellet precipitated phage by centrifugation at 5,300 g for 15 min. Resuspend the phage pellet in 100 μl PBS per selection. • Add 100 μl of phage solution to the GST‐coated pre‐selection wells and incubate for 1 h. • Transfer the phage solution to the immobilized target proteins and allow it to bind for 2 h at 8°C. • Wash the plate four times with 200 μl cold wash buffer (PBS, 0.05% Tween‐20). • Elute bound phage by incubation with 100 μl log phase (0.6–0.8 OD600) E. coli Omnimax for 30 min at 37°C with shaking (200 RPM). • Add 10^12 cfu/ml M13K07 helper phage for hyperinfection of the bacteria and incubate as above for 45 min. • Transfer the bacterial culture to 10 ml 2YT supplemented with 50 μg/ml carbenicillin, 25 μg/ml kanamycin, and 300 μM IPTG and incubate overnight at 37°C while shaking. • Perform phage pool ELISA to monitor the progress of the selection as described previously (Huang & Sidhu, 2011).
(§3) The naïve library and the enriched phage pools of the third day of selection were amplified and barcoded by PCR and analyzed by NGS as described elsewhere (McLaughlin & Sidhu, 2013; Ivarsson et al, 2014). The reads were demultiplexed using the barcode sequences and filtered by discarding sequences with a Phred quality score under 30. Sequences were mapped to the original library using Bowtie (Langmead et al, 2009) with two mismatches between reads and library sequence. Nucleotide mutations leading to amino acid substitutions were subsequently removed. Cutoff values of NGS counts were assigned for each pool. PWMs were generated based on the remaining peptides (aligned on the C‐termini) using WebLogo (Crooks et al, 2004).
(§4) However, there was no significant correlation of the actual read counts (selection “strength”) and the initial representation in the library, reflecting the strong selection during phage display (wt+mimetic: P‐value: 0.49, ρ = −0.08, mimetic only: P‐value: 0.069, ρ = −0.2, wt only: P‐value: 0.12, ρ = 0.17). Consequently, the amount of reads for each binder after phage display is not a function of the amount of input reads in the naïve library and no modeling based on the input library frequencies to score the interactions is necessary. To allow for comparison between replicate selections, we used the fraction of NGS reads within a certain set, instead of the absolute number of NGS reads, as the absolute numbers differ between different NGS batches.

DLG1 PDZ2 = biological target: T1, DLG1 PDZ2 (Homo sapiens, UniProt Q12959); test: Phosphomimetic ProP-PD selection with NGS; assay type: binding; details: mean of selections 1-3, bait DLG1 PDZ2
T1 construct: human DLG1 PDZ2 aa 311–407 in a modified pRSET vector 40; made in house; host or cells: E. coli BL21 Gold (DE3)
T1 sequence (Q12959 311-407): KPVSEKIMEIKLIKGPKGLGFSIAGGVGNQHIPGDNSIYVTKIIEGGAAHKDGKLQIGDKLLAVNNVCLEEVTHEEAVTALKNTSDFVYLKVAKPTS
Procedure: as §1, §2, §3, §4

Scribble PDZ1 [1] = biological target: T2, Scribble PDZ1 (Homo sapiens, UniProt Q14160); test: Phosphomimetic ProP-PD selection with NGS; assay type: binding; details: bait Scribble PDZ1; mean of selections 1-3
T2 construct: human Scribble PDZ1 aa 719–829 in; made in house; host or cells: E. coli BL21 Gold (DE3)
T2 sequence (Q14160 719-829): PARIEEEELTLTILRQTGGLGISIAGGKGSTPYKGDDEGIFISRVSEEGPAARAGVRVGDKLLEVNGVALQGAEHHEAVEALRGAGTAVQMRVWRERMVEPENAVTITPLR
Procedure: as §1, §2, §3, §4

Scribble PDZ3 = test: Phosphomimetic ProP-PD selection with NGS; assay type: binding, human; details: bait Scribble PDZ3
Procedure: as §1, §2, §3, §4

DLG1 PDZ1 = test: Phosphomimetic ProP-PD selection with NGS; assay type: binding, human; details: mean of selections 1-3, bait DLG1 PDZ1; for Mean fraction #NGS counts wt peptide / total counts selection: wild type peptide; for Mean fraction #NGS counts mimetic peptide / total count selection: phosphomimetic peptide
Procedure: as §1, §2, §3, §4

Scribble PDZ1 [2] = biological target: T2, Scribble PDZ1; test: Pre-phosphorylation ProP-PD: wild-type library treated with RPS6KA1 or not, selection with NGS; assay type: binding; details: for Phosphorylated selection Mean fraction: Pre-phosphorylation with RPS6KA1; for Phosphorylated selection Mean fraction / Unphosphorylated selection Mean fraction: mean of the two selections, bait Scribble PDZ1; for Unphosphorylated selection Mean fraction: Without Kinase
Procedure: For pre‐phosphorylation of the wild‐type ProP‐PD library, we obtained activated RPS6KA1 (Thermo Fisher). The time and amount of kinase required to phosphorylate the ProP‐PD library were tested in a phosphorylation assay.
as §1, §2
• Precipitate the naive wild‐type phage library (as described above, 1.8 × 10^10 cfu phage per selection). • Resuspend the precipitated phage pellets in 100 μl Kinase buffer per selection and add ATP (100 μM final concentration) and RPS6KA1 (500 ng/ml) to the phage solution. In parallel, prepare a negative control where only ATP is added to the phage pool. • Incubate the phosphorylation reaction for 2 h at room temperature. Stop the reaction through PEG/NaCl precipitation (as described above). • Resuspend the phage pool in 100 μl HBS.
During the 4 days of pre‐phosphorylation ProP‐PD selections, the input phage library of each day of selection was subjected to phosphorylation prior to phage selection.
as §3

[3] = mean of selections 1 and 2 (selection 3 empty)
[4] = mean of selections 1-3, wild type peptide
[5] = mean of selections 1-3, phosphomimetic peptide

RGLESATEL
Mean fraction #NGS counts mimetic peptide / total count selection (Scribble PDZ2; mean over selections): 0.001519

QSELKLSNL
Mean fraction #NGS counts wt peptide / total counts selection (Scribble PDZ2; [3]): 0.0009495

SGSYLVTSV
Mean fraction #NGS counts wt peptide / total counts selection (Scribble PDZ2; [3]): 0.0003798 | Mean fraction #NGS counts wt peptide / total counts selection (Scribble PDZ2; mean over selections): 0.0003798 | Mean fraction #NGS counts wt peptide / total counts selection (DLG1 PDZ2): 0.0001258 | Mean fraction #NGS counts wt peptide / total counts selection (DLG1 PDZ2; wild type peptide): 0.0001258 | Mean fraction #NGS counts wt peptide / total counts selection (Scribble PDZ1 [1]): 4.38e-5

SQSRMSTNM
Mean fraction #NGS counts wt peptide / total counts selection (Scribble PDZ3; mean over selections 1-3): 0 | Mean fraction #NGS counts wt peptide / total counts selection (Scribble PDZ2; [3]): 0

RGLESATSL
Mean fraction #NGS counts wt peptide / total counts selection (Scribble PDZ2; mean over selections): 0

WVDSYYTSL
Mean fraction #NGS counts wt peptide / total counts selection (Scribble PDZ3; [4]): 0.0003456 | Mean fraction #NGS counts wt peptide / total counts selection (Scribble PDZ2; mean over selections): 0

KRSFIESNV
Mean fraction #NGS counts wt peptide / total counts selection (Scribble PDZ3; mean over selections 1-3): 0.07707 | Mean fraction #NGS counts wt peptide / total counts selection (Scribble PDZ2; [3]): 0.2119 | Mean fraction #NGS counts wt peptide / total counts selection (DLG1 PDZ1): 0.0007809 | Mean fraction #NGS counts wt peptide / total counts selection (DLG1 PDZ2; wild type peptide): 0.007809 | Mean fraction #NGS counts wt peptide / total counts selection (Scribble PDZ1 [1]): 0.03115

TMFLRETEL
Mean fraction #NGS counts mimetic peptide / total count selection (Scribble PDZ3; mean over selections 1-3): 0.4954 | Mean fraction #NGS counts mimetic peptide / total count selection (Scribble PDZ2; mean over selections): 0.1922 | Mean fraction #NGS counts mimetic peptide / total count selection (DLG1 PDZ1): 0.002709 | Mean fraction #NGS counts mimetic peptide / total count selection (DLG1 PDZ2): 0.0007019 | Mean fraction #NGS counts mimetic peptide / total count selection (Scribble PDZ1 [1]): 0.8115

VVSERISSV
Mean fraction #NGS counts wt peptide / total counts selection (Scribble PDZ2; [3]): 0.003259 | Mean fraction #NGS counts wt peptide / total counts selection (Scribble PDZ2; mean over selections): 0.003259 | Mean fraction #NGS counts wt peptide / total counts selection (DLG1 PDZ2): 0.0005322

YPASPDSWV
Mean fraction #NGS counts wt peptide / total counts selection (Scribble PDZ2; [3]): 0.02304 | Mean fraction #NGS counts wt peptide / total counts selection (DLG1 PDZ2): 0.0001112

PLHSLETSL [ATP2B1]
Phosphorylated selection Mean fraction (Scribble PDZ1 [2]): 0.0003108 | Unphosphorylated selection Mean fraction (Scribble PDZ1 [2]): 1.381e-5

PIHSLETSL [ATP2B2]
Phosphorylated selection Mean fraction (Scribble PDZ1 [2]): 0.0009701 | Unphosphorylated selection Mean fraction (Scribble PDZ1 [2]): 0.003212

TMFLRETSL‐coo‐
proportion of NGS counts, pre‐phosphorylated library relative to unphosphorylated library (fold) (Scribble PDZ1 [2]; phage-displayed peptide, library treated with RPS6KA1, selection against Scribble PDZ1, n = 2): 3 ×

VVHTPETSV
Mean fraction #NGS counts wt peptide / total counts selection (Scribble PDZ3; [4]): 6.402e-5 | Mean fraction #NGS counts wt peptide / total counts selection (Scribble PDZ2; mean over selections): 0 | Mean fraction #NGS counts wt peptide / total counts selection (DLG1 PDZ2): 3.877e-6 | Mean fraction #NGS counts wt peptide / total counts selection (Scribble PDZ1 [1]): 7.859e-5

LPHSPHSHL [AAAS]
Phosphorylated selection Mean fraction (Scribble PDZ1 [2]): 6.993e-6 | Unphosphorylated selection Mean fraction (Scribble PDZ1 [2]): 4.139e-6

TELTWISTL
Mean fraction #NGS counts mimetic peptide / total count selection (Scribble PDZ2; [3]): 0.002089

KREFIESNV
Mean fraction #NGS counts mimetic peptide / total count selection (Scribble PDZ3; mean over selections 1-3): 0.005112 | Mean fraction #NGS counts mimetic peptide / total count selection (Scribble PDZ2; [3]): 0.003418 | Mean fraction #NGS counts mimetic peptide / total count selection (DLG1 PDZ1): 2.37e-6 | Mean fraction #NGS counts mimetic peptide / total count selection (DLG1 PDZ2; phosphomimetic peptide): 0.0001273 | Mean fraction #NGS counts mimetic peptide / total count selection (Scribble PDZ1 [1]): 0.0009157

SQERMETNM
Mean fraction #NGS counts mimetic peptide / total count selection (Scribble PDZ3; mean over selections 1-3): 0.0002907 | Mean fraction #NGS counts mimetic peptide / total count selection (Scribble PDZ2; [3]): 0.007678

TALKVMTMV [DACT2]
Phosphorylated selection Mean fraction (Scribble PDZ1 [2]): 2.797e-5 | Unphosphorylated selection Mean fraction (Scribble PDZ1 [2]): 9.668e-6

VWLRKETRV [CYSLTR2]
Phosphorylated selection Mean fraction (Scribble PDZ1 [2]): 7.3245e-6 | Unphosphorylated selection Mean fraction (Scribble PDZ1 [2]): 0

VVSERISEV
Mean fraction #NGS counts mimetic peptide / total count selection (Scribble PDZ2; mean over selections): 0.0003798 | Mean fraction #NGS counts mimetic peptide / total count selection (DLG1 PDZ2): 0.0004709

YPGSPDSWV
Mean fraction #NGS counts wt peptide / total counts selection (Scribble PDZ2; [3]): 0.2284 | Mean fraction #NGS counts wt peptide / total counts selection (DLG1 PDZ1): 3.476e-5 | Mean fraction #NGS counts wt peptide / total counts selection (DLG1 PDZ2): 0.0005284

DKESFLTWL [YAP1]
Phosphorylated selection Mean fraction (Scribble PDZ1 [2]): 0.0002294 | Unphosphorylated selection Mean fraction (Scribble PDZ1 [2]): 0.0001256

SGEYLVTEV
Mean fraction #NGS counts mimetic peptide / total count selection (Scribble PDZ2; mean over selections): 0.001329

YPAEPDSWV
Mean fraction #NGS counts mimetic peptide / total count selection (Scribble PDZ2; [3]): 0 | Mean fraction #NGS counts mimetic peptide / total count selection (DLG1 PDZ2): 0

SGEYLVTSV
Mean fraction #NGS counts mimetic peptide / total count selection (Scribble PDZ2; [3]): 0.001139 | Mean fraction #NGS counts mimetic peptide / total count selection (DLG1 PDZ2): 0

QEELKLSNL
Mean fraction #NGS counts mimetic peptide / total count selection (Scribble PDZ2; [3]): 0.0005697

TSLTWISTL
Mean fraction #NGS counts wt peptide / total counts selection (Scribble PDZ2; [3]): 0

YPGEPDSWV
Mean fraction #NGS counts mimetic peptide / total count selection (Scribble PDZ2; [3]): 0

RSRSIETDV
Mean fraction #NGS counts mimetic peptide / total count selection (Scribble PDZ3; mean over selections 1-3): 0.001306 | Mean fraction #NGS counts mimetic peptide / total count selection (Scribble PDZ2; [3]): 0.06648 | Mean fraction #NGS counts mimetic peptide / total count selection (DLG1 PDZ1): 0.001793 | Mean fraction #NGS counts mimetic peptide / total count selection (DLG1 PDZ2): 0.009109 | Mean fraction #NGS counts mimetic peptide / total count selection (Scribble PDZ1 [1]): 0.0006725

RSRSISTDV
Mean fraction #NGS counts wt peptide / total counts selection (Scribble PDZ3; mean over selections 1-3): 0.0004544 | Mean fraction #NGS counts wt peptide / total counts selection (Scribble PDZ2; [3]): 0.001899 | Mean fraction #NGS counts wt peptide / total counts selection (DLG1 PDZ2): 0.02018 | Mean fraction #NGS counts wt peptide / total counts selection (Scribble PDZ1 [1]): 0.0001844

VVHTPETEV
Mean fraction #NGS counts mimetic peptide / total count selection (Scribble PDZ3; [5]): 1.817e-5 | Mean fraction #NGS counts mimetic peptide / total count selection (Scribble PDZ2; mean over selections): 0.0009495 | Mean fraction #NGS counts mimetic peptide / total count selection (DLG1 PDZ1): 0.0004495 | Mean fraction #NGS counts mimetic peptide / total count selection (DLG1 PDZ2): 5.021e-5

TMFLRETSL
Mean fraction #NGS counts wt peptide / total counts selection (Scribble PDZ3; mean over selections 1-3): 0.0186 | Mean fraction #NGS counts wt peptide / total counts selection (Scribble PDZ2; mean over selections): 0.008166 | Mean fraction #NGS counts wt peptide / total counts selection (DLG1 PDZ1): 0.0004495 | Mean fraction #NGS counts wt peptide / total counts selection (DLG1 PDZ2): 0.0002151 | Mean fraction #NGS counts wt peptide / total counts selection (Scribble PDZ1 [1]): 0.01417

WVDSYYTEL
Mean fraction #NGS counts mimetic peptide / total count selection (Scribble PDZ3; [5]): 0.002589 | Mean fraction #NGS counts mimetic peptide / total count selection (Scribble PDZ2; mean over selections): 0.002879

VVSERIESV
Mean fraction #NGS counts mimetic peptide / total count selection (Scribble PDZ2; [3]): 0.0001899
